Laboratory results published in the NIST ThermoML archive (doi:10.1021/je030151s).

Test: xn = mol fraction of the nth substance listed
Conditions: 101.3 kPa, Liquid; for viscosity: Capillary tube (Ostwald / Ubbelohde) method

CCC(=O)CC [pentan-3-one] + Cc1ccccc1C
Conditions | mass density, 293.15 K [kg/m3] | mass density, 303.15 K [kg/m3] | mass density, 313.15 K [kg/m3] | speed of sound, 293.15 K [m/s] | speed of sound, 303.15 K [m/s] | speed of sound, 313.15 K [m/s] | viscosity, 293.15 K [mPa·s] | viscosity, 303.15 K [mPa·s] | viscosity, 313.15 K [mPa·s]
x1 = 0.0955 | 878 | 870.5 | 862.4 | 1357 | 1328 | 1287.6 | 0.7649 | 0.677 | 0.5965
x1 = 0.2073 | 875 | 868.5 | 859.4 | 1345.1 | 1315 | 1277 | 0.7182 | 0.638 | 0.565
x1 = 0.3191 | 871.1 | 863.1 | 855 | 1333.5 | 1303 | 1262 | 0.675 | 0.6003 | 0.533
x1 = 0.4298 | 865.3 | 857.3 | 848.8 | 1318.8 | 1287 | 1251 | 0.636 | 0.562 | 0.502
x1 = 0.5338 | 859.5 | 850.5 | 842.5 | 1306 | 1272 | 1238 | 0.6001 | 0.5271 | 0.474
x1 = 0.6363 | 852.1 | 844 | 835.5 | 1292.2 | 1255.8 | 1224 | 0.568 | 0.497 | 0.447
x1 = 0.7329 | 845 | 837.3 | 827.9 | 1279.4 | 1245 | 1208.3 | 0.537 | 0.4719 | 0.424
x1 = 0.8283 | 836.8 | 829.1 | 819.9 | 1266.2 | 1229 | 1194 | 0.51 | 0.4481 | 0.4034
x1 = 0.9242 | 826.3 | 817 | 808.2 | 1250.9 | 1213 | 1179.3 | 0.4882 | 0.4333 | 0.3872
x1 = 1 | 814.4 | 804.7 | 794.9 | 1230.7 | 1197.8 | 1159.1 | 0.4714 | 0.4231 | 0.3799
